Laboratory results reported in patent US20140350064A1, “PHARMACEUTICAL COMPOSITION COMPRISING AN AMPK ACTIVATOR AND A SEROTONERGIC AGENT AND METHODS OF USE THEREOF” (priority 2013, published 2014).

Tests used:
Assay type in all cases: in vivo, Sprague-Dawley rat
[1] = Weight gain inhibition in Sprague-Dawley rats, 65 days' treatment
Experimental: (§1) Male Sprague-Dawley rats were used with average body weight 223 g. The rats were fed with standard chow.
(§2) Before grouping, all animals were weighed at fasting state for 5 consecutive days. The first dose of the drug as indicated in Table 1 was administered on the next day after grouping; the dose was administered by gavage (t.i.d.) in a solution dose of […] body weight, and continued for a total of 65 days. Initially, each rat was treated accordingly with 0.25 mL drug solution; the dosage was then adjusted according to the body weight change of each rat, by increasing the dose by 0.05 mL for each 50 g body weight increment.
(§3) Groups were fed overnight with 30 g chowrat after drug administration and food deprived during daytime. Overnight food intake was measured every morning, while fasting body weight was measured every Tuesday and Friday night.
(§4) Statistical analysis was performed with SPSS software (IBM). One-way ANOVA was performed.

[2] = Overnight food intake in Sprague-Dawley rats during dosing; settings: daily overnight food intake, 65 days of treatment, n=10
Experimental: as §1, §2, §3, §4

[3] = Fat mass of Sprague-Dawley rats after 65 days' treatment; settings: for Fat Mass: average total fat mass after 65 days, n=10
Experimental: as §1, §2, §4

[4] = after 65 consecutive days of treatment

CC(C)CC(N(C)C)C1(c2ccc(Cl)cc2)CCC1 (centres unmarked) [SIB, sibutramine]
Effect on body weight gain [1, 4]: decreased body weight gain | Post-Dose body weight ([1]; male Sprague-Dawley rats, gavage t.i.d., 65 days, fasting body weight, n=10): 493.8 ± 13.0 g | ΔBW (increase of body weight) ([1]; male Sprague-Dawley rats, gavage t.i.d., 65 days, n=10): 270.7 ± 11.6 g | ΔBW (increase of body weight) ([1]; male Sprague-Dawley rats, gavage t.i.d., 65 days, n=10, listed as sibutramine): 270.7 g | Relative Body Weight ([1]; vs. GS control group, 65 days, n=10): -22.0 g | Weight Loss Ratio ([1]; vs. GS control group, 65 days, n=10, listed as sibutramine): 4.3% | Average Food Intake During Dosing [2]: 29.4 ± 0.9 g | Average Food Intake During Dosing ([2]; listed as sibutramine): 29.4 g | Effect on fat mass [3, 4]: reduced fat mass | Fat Mass [3]: 25.5 ± 6.3 g | Fat Mass ([3]; listed as sibutramine): 25.5 g
